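Protocol summary: plate cells (96-well), add compound at 5 concentrations, incubate 48 h, interpolate endpoints linearly. Definition used: TGI = concentration required for complete inhibition of growth.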
Tests used:
Assay in all cases: DTP human tumour cell line panel, 48 h
SNB-78 CNS = system: SNB-78 CNS
TK-10 renal = system: TK-10 renal
K-562 leukemia = system: K-562 leukemia
OVCAR-3 ovarian = system: OVCAR-3 ovarian
HOP-62 NSCLC = system: HOP-62 NSCLC
SK-OV-3 ovarian = system: SK-OV-3 ovarian
SK-MEL-2 melanoma = system: SK-MEL-2 melanoma
A498 renal = system: A498 renal
DMS 273 small cell lung = system: DMS 273 small cell lung
HL-60(TB) leukemia = system: HL-60(TB) leukemia
DMS 114 small cell lung = system: DMS 114 small cell lung
SNB-75 CNS = system: SNB-75 CNS
786-0 renal = system: 786-0 renal
RPMI-8226 leukemia = system: RPMI-8226 leukemia
COLO 205 colon = system: COLO 205 colon
SR leukemia = system: SR leukemia
SF-539 CNS = system: SF-539 CNS
MOLT-4 leukemia = system: MOLT-4 leukemia
SN12C renal = system: SN12C renal
SW-620 colon = system: SW-620 colon
MDA-N = system: MDA-N
KM12 colon = system: KM12 colon
ACHN renal = system: ACHN renal
KM20L2 colon = system: KM20L2 colon
M19-MEL melanoma = system: M19-MEL melanoma
A549 NSCLC = system: A549 NSCLC
NCI-H522 lung = system: NCI-H522 lung
RXF 393 renal = system: RXF 393 renal
HCT-15 colon = system: HCT-15 colon
SNB-19 CNS = system: SNB-19 CNS
SF-268 CNS = system: SF-268 CNS
NCI-H460 lung = system: NCI-H460 lung
HS 578T breast = system: HS 578T breast
EKVX NSCLC = system: EKVX NSCLC
OVCAR-4 ovarian = system: OVCAR-4 ovarian
LOX IMVI melanoma = system: LOX IMVI melanoma
NCI-H226 lung = system: NCI-H226 lung
MDA-MB-435 = system: MDA-MB-435
SK-MEL-5 melanoma = system: SK-MEL-5 melanoma
HCT-116 colon = system: HCT-116 colon
MALME-3M melanoma = system: MALME-3M melanoma
UACC-62 melanoma = system: UACC-62 melanoma
HCC-2998 colon = system: HCC-2998 colon
OVCAR-5 ovarian = system: OVCAR-5 ovarian
NCI-H23 lung = system: NCI-H23 lung
IGROV1 ovarian = system: IGROV1 ovarian
LXFL 529 NSCLC = system: LXFL 529 NSCLC
NCI/ADR-RES ovarian = system: NCI/ADR-RES ovarian
CCRF-CEM leukemia = system: CCRF-CEM leukemia
T-47D breast = system: T-47D breast
U251 CNS = system: U251 CNS
BT-549 breast = system: BT-549 breast
XF 498 CNS = system: XF 498 CNS
SK-MEL-28 melanoma = system: SK-MEL-28 melanoma
OVCAR-8 ovarian = system: OVCAR-8 ovarian
SF-295 CNS = system: SF-295 CNS
M14 melanoma = system: M14 melanoma
DU-145 prostate = system: DU-145 prostate
HOP-18 NSCLC = system: HOP-18 NSCLC
DLD-1 colon = system: DLD-1 colon
MDA-MB-231 breast = system: MDA-MB-231 breast
HT29 colon = system: HT29 colon
UACC-257 melanoma = system: UACC-257 melanoma
UO-31 renal = system: UO-31 renal
PC-3 prostate = system: PC-3 prostate
CAKI-1 renal = system: CAKI-1 renal
HOP-92 NSCLC = system: HOP-92 NSCLC
MCF7 breast = system: MCF7 breast

CCc1c2cc(OC)c(OC)cc2cc2c3cc(OC)c(OC)cc3cc[n+]12 (tested in a mixture with another compound)
TGI (SNB-78 CNS): > 100 µM
TGI (TK-10 renal): > 100 µM
TGI (K-562 leukemia): > 45.6 µM
TGI (OVCAR-3 ovarian): > 89.8 µM
TGI (HOP-62 NSCLC): > 95.4 µM
TGI (SK-OV-3 ovarian): > 97.2 µM
TGI (SK-MEL-2 melanoma): 87.1 µM
TGI (A498 renal): > 71.8 µM
TGI (DMS 273 small cell lung): > 100 µM
TGI (HL-60(TB) leukemia): > 96.8 µM
TGI (DMS 114 small cell lung): 63.1 µM
TGI (SNB-75 CNS): 38.4 µM
TGI (786-0 renal): > 73 µM
TGI (RPMI-8226 leukemia): > 47.3 µM
TGI (COLO 205 colon): 22.8 µM
TGI (SR leukemia): > 57.9 µM
TGI (SF-539 CNS): > 94.9 µM
TGI (MOLT-4 leukemia): > 100 µM
TGI (SN12C renal): > 79.9 µM
TGI (SW-620 colon): 75.8 µM
TGI (MDA-N): > 36.5 µM
TGI (KM12 colon): > 61.5 µM
TGI (ACHN renal): > 71.2 µM
TGI (KM20L2 colon): > 100 µM
TGI (M19-MEL melanoma): > 92.7 µM
TGI (A549 NSCLC): > 96.6 µM
TGI (NCI-H522 lung): 34.3 µM
TGI (RXF 393 renal): > 100 µM
TGI (HCT-15 colon): > 61.7 µM
TGI (SNB-19 CNS): 82.1 µM
TGI (SF-268 CNS): 41.3 µM
TGI (NCI-H460 lung): > 76 µM
TGI (HS 578T breast): > 89.1 µM
TGI (EKVX NSCLC): > 88 µM
TGI (OVCAR-4 ovarian): > 85.6 µM
TGI (LOX IMVI melanoma): > 63 µM
TGI (NCI-H226 lung): 39.2 µM
TGI (MDA-MB-435): 25.5 µM
TGI (SK-MEL-5 melanoma): 48.9 µM
TGI (HCT-116 colon): > 53.8 µM
TGI (MALME-3M melanoma): 44.2 µM
TGI (UACC-62 melanoma): 73.8 µM
TGI (HCC-2998 colon): 52 µM
TGI (OVCAR-5 ovarian): > 100 µM
TGI (NCI-H23 lung): 60.5 µM
TGI (IGROV1 ovarian): > 85.3 µM
TGI (LXFL 529 NSCLC): > 76.3 µM
TGI (NCI/ADR-RES ovarian): > 61.1 µM
TGI (CCRF-CEM leukemia): > 100 µM
TGI (T-47D breast): > 67 µM
TGI (U251 CNS): 57.2 µM
TGI (BT-549 breast): 17.4 µM
TGI (XF 498 CNS): 33.6 µM
TGI (SK-MEL-28 melanoma): > 79.4 µM
TGI (OVCAR-8 ovarian): > 72.6 µM
TGI (SF-295 CNS): > 86.7 µM
TGI (M14 melanoma): > 86.6 µM
TGI (DU-145 prostate): > 54.8 µM
TGI (HOP-18 NSCLC): > 100 µM
TGI (DLD-1 colon): > 100 µM
TGI (MDA-MB-231 breast): 48.8 µM
TGI (HT29 colon): > 66.4 µM
TGI (UACC-257 melanoma): 59.3 µM
TGI (UO-31 renal): > 71.6 µM
TGI (PC-3 prostate): > 83.1 µM
TGI (CAKI-1 renal): > 73.4 µM
TGI (HOP-92 NSCLC): > 80 µM
TGI (MCF7 breast): > 91.6 µM

From PubChem BioAssay (NCI)
